Measured values: paper PMC2825274 (PLoS ONE, 2010)
≈ marks a conversion by molar mass, not a printed value. Where “and” joins values, the source holds several entries; their conditions need not be identical. Identical values can stand only once.

Key:
Assay type in all cases: cell-based, influenza A virus
[1] = test system: A/Mississippi/3/01 (H1N1) H274Y (MS H274Y) oseltamivir-resistant
[2] = test system: A/Wisconsin/67/05 (H3N2) S31N (WI S31N)
[3] = test system: A/New Caledonia/20/99 (H1N1) V27A (NC V27A)
[4] = test system: influenza A/California/10/09 (H1N1) (CA10), S31N amantadine-resistant
[5] = test system: A/Hawaii/21/07 (H1N1) H274Y (HI H274Y)

Question: Which EC50 [1] does the source give for `NC12CC3CC(CC(C3)C1)C2` [Amantadine] here?
Answer: 0.060 µg/mL (≈ 0.397 µM)

Question: What about the “activity as a single agent” value [2] of the same molecule?
Answer: no activity

Question: What about the “amantadine concentration at which the increase in synergy of the TCAD regimen was observed” value [2] of the same molecule?
Answer: 1 µg/mL

Question: And the “activity as a single agent” value [3]?
Answer: no activity

Question: What about the “amantadine concentration at which the increase in synergy of the TCAD regimen was observed” value [3] of the same molecule?
Answer: 0.32 µg/mL

Question: And the “Fold Reduction in EC50 Compared to (A)” value [4]?
Answer: 1.8 and 2.0 and 3.2

Question: What about the “Fold Reduction in EC50 Compared to (B)” value [4] of the same molecule?
Answer: 1.7

Question: What about the “Fold Reduction in EC50 Compared to (C)” value [4] of the same molecule?
Answer: 1.6

Question: What about the “amantadine concentration with significant contribution to the synergy of the TCAD regimen” value [4] of the same molecule?
Answer: ≥ 0.32 µg/mL

Question: And the “contribution to the total synergy of the TCAD regimen” value [4]?
Answer: 44%

Question: With `NC(=O)c1ncn([C@@H]2O[C@H](CO)[C@@H](O)[C@H]2O)n1` [Ribavirin] as the molecule, how does the EC50 [1] read?
Answer: 3.6 µg/mL (≈ 14.7 µM)

Question: And the “Fold Reduction in EC50 Compared to (B)” value [4]?
Answer: 1.5

Question: What about the “Fold Reduction in EC50 Compared to (C)” value [4] of the same molecule?
Answer: 2.2

Question: What does the source list for Oseltamivir carboxylate?
Answer: Fold Reduction in EC50 Compared to (B) [5]: 3.3; Fold Reduction in EC50 Compared to (C) [5]: 4.2; antiviral activity as a single agent [5]: no antiviral activity; contribution to the total synergy of the TCAD regimen [5]: 83%; fold reduction in susceptibility [5]: 300 fold; oseltamivir carboxylate concentration from which it contributed to the synergy of the TCAD regimen [5]: ≥ 0.32 µg/mL; EC50 [1]: 73 µg/mL; Fold Reduction in EC50 Compared to (A) [1]: 21; Fold Reduction in EC50 Compared to (B) [1]: >29; Fold Reduction in EC50 Compared to (C) [1]: >29; antiviral activity as a single agent [1]: no antiviral activity; contribution to the total synergy of the TCAD regimen [1]: 76%; fold reduction in susceptibility [1]: 1480 fold; oseltamivir carboxylate concentration from which it contributed to the synergy of the TCAD regimen [1]: ≥ 0.1 µg/mL; Fold Reduction in EC50 Compared to (B) [4]: 6.5; Fold Reduction in EC50 Compared to (C) [4]: 6.5
